The source made the active and inactive calls.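 Rule for the calls: active = fitted dose-response curve with goodness of fit R² above 0.5; inactive = the rest.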
Target: Muscarinic acetylcholine receptor M1 (Rattus norvegicus) (UniProt P08482)
Assay: rat M1 positive allosteric modulator potency, dose response, cell-based, calcium mobilization, CHO-K1, ACh EC20 (AID 2425)
Details: CHO-K1 rat M1, Fluo-4 calcium, PAM with ACh EC20

Sequence of Muscarinic acetylcholine receptor M1 (Rattus norvegicus) (P08482 whole entry, looked up): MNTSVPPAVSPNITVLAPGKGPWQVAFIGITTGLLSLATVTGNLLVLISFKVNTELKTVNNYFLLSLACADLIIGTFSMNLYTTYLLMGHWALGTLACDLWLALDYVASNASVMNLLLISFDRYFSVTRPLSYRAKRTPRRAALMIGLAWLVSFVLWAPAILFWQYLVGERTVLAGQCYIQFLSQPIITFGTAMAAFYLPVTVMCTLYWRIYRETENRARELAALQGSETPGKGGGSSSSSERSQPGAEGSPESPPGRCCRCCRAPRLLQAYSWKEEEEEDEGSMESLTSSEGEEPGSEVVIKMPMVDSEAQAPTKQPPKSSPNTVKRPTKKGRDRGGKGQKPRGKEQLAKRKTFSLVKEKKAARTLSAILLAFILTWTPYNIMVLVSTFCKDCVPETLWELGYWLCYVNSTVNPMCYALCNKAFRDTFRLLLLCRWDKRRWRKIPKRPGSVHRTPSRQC

Row | potentiation, % max ACh (at 30 µM (top of the series)) | EC50 [µM] | SMILES
1 | inactive |  | O=C1C(=O)N(Cc2ccc(Oc3ccccc3)cc2)c2ccc(OC(F)(F)F)cc21
2 |  | 5.86 | Cc1cc(NC(=O)CS(=O)(=O)c2cn(Cc3cccc(Cl)c3)c3ccccc23)no1

Reference: PubChem BioAssay AID2425 (Vanderbilt High Throughput Screening Facility, 2010)
